In ChEMBL document CHEMBL1201862, “PubChem BioAssay data set” (2004):
Active and inactive are the calls of the source.

Tests used:
[1] = molecular target: G-protein coupled receptor 55 (Homo sapiens, UniProt Q9Y2T6); test: inhibition of LPI-stimulated GPR55 beta-arrestin translocation – imaging, U2OS, beta-arrestin-GFP, LPI agonist, primary screen (AID 2013); format: functional;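 note: antagonist potency measured as reduced agonist-driven arrestin aggregation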
[2] = system: Streptococcus; test: GAS UMAA2166 growth inhibition – luminescence, BacTiterGlo, counter-screen for streptokinase expression inhibitor project, dose response (AID 1915); format: functional, organism-based;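 note: potency for reduction of bacterial viability or growth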
[3] = molecular target: Nucleotide-binding oligomerization domain-containing protein 2 (Homo sapiens, UniProt Q9HC29); test: inhibition of NOD2-driven NF-kB reporter – cell-based, luminescence, uHTS, HEK293 (AID 1566); format: functional
[4] = system: HEK293; test: cells; format: functional, cell-based; settings: Homo sapiens
[5] = system: HEK293; test: cells; format: functional, cell-based; settings: Homo sapiens; remark: listed apart in the source
[6] = molecular target: T1, Fatty acid synthase (Homo sapiens, UniProt P49327); test: inhibition of human FAS-TE enzyme activity – biochemical, endpoint fluorescence intensity, uHTS hits, dose response (AID 624327); format: functional;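 note: fluorescence from hydrolysis of an O-methyl fluorescein acyl ester substrate by the enzyme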
T1 sequence (P49327 whole entry): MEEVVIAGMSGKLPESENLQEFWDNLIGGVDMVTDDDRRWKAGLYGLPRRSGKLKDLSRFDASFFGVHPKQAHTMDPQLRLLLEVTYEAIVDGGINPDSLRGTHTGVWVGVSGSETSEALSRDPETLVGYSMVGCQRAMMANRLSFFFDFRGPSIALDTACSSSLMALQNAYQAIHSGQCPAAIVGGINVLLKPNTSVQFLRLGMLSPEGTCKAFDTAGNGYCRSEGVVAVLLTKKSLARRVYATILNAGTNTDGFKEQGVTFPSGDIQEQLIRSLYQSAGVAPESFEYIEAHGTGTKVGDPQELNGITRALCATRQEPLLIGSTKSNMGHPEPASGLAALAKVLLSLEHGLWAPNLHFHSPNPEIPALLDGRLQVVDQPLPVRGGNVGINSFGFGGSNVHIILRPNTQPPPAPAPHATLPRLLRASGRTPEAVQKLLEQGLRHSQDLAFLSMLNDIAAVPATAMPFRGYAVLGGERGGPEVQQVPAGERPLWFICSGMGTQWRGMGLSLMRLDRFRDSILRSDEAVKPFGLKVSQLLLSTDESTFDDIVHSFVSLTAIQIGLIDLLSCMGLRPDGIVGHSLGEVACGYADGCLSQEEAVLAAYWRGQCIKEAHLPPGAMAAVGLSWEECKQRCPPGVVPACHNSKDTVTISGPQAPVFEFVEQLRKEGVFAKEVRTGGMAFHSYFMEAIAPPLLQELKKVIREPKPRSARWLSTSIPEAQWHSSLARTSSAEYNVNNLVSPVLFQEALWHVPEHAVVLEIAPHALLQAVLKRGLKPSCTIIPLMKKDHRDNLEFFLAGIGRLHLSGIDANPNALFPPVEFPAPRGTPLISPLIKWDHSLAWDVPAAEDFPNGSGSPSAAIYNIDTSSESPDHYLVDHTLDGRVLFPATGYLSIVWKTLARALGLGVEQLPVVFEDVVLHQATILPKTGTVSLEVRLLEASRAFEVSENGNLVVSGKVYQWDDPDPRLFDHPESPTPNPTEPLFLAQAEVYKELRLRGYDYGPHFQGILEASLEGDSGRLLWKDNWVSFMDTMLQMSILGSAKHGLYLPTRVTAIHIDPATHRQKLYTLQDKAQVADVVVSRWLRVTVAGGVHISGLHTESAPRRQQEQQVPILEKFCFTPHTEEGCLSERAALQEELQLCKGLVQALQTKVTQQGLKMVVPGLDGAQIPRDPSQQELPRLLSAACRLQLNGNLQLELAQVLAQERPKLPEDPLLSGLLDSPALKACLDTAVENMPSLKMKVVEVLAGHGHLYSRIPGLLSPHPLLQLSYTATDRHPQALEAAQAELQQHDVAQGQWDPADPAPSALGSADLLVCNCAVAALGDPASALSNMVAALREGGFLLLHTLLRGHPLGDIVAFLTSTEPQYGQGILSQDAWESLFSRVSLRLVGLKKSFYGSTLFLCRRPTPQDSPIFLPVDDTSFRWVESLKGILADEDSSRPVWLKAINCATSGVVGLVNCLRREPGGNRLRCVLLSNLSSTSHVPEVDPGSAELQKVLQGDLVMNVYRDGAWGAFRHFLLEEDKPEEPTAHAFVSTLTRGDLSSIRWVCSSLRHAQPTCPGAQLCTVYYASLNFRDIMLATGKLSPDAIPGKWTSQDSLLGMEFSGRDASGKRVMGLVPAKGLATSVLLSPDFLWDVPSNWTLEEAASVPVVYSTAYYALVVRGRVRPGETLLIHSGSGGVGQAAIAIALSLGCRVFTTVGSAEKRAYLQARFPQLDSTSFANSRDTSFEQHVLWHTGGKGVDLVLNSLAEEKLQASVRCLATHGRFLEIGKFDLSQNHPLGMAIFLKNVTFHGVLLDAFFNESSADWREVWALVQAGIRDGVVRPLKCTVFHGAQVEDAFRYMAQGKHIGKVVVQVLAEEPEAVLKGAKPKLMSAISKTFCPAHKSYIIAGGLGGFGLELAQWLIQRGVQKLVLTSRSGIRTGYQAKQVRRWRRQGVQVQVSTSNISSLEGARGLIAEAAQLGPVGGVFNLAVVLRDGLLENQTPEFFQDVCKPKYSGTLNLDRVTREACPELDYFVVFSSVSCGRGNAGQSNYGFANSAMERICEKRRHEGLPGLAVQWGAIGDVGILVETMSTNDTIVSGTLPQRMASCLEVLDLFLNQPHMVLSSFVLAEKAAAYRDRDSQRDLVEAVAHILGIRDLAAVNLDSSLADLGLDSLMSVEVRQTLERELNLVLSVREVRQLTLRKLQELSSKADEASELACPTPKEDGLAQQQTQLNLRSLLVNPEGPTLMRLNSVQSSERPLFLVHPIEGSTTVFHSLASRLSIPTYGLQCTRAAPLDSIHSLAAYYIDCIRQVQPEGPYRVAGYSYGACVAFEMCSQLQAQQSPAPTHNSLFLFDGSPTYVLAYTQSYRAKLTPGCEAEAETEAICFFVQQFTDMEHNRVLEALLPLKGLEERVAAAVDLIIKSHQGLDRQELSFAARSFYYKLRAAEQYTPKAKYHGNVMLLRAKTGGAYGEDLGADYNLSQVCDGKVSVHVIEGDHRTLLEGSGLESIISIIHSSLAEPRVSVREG

[7] = system: HEK293; test: inhibition of NOD1-driven NF-kB reporter – cell-based, luminescence, uHTS, primary screen (AID 1578); format: functional; settings: Homo sapiens
[8] = molecular target: T1, Fatty acid synthase; test: inhibition of human FAS-TE enzyme activity – biochemical, kinetic fluorescence intensity, dose response (AID 624326); format: functional;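 note: rate of fluorescence rise from hydrolysis of a fluorogenic O-methyl fluorescein ester substrate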
[9] = system: HEK293; test: NOD2 signaling inhibitors in MDP-stimulated cells, cell-based, uHTS, luminescence (AID 2001); format: functional; settings: Homo sapiens
[10] = system: HEK293; test: cells; format: functional, cell-based; settings: Homo sapiens; remark: listed apart in the source
[11] = system: INS1; test: INS-1E survival protection against cytokine death – cell-based, luminescence, retest, dose response (AID 449756); format: functional; settings: Rattus norvegicus;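 note: cell death triggered by IL-1 beta plus TNF-alpha plus IFN-gamma mixture; protective hits raise ATP signal compared with cytokine alone wells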
[12] = microbe, parasite or virus in culture; format: functional; settings: Mycobacterium tuberculosis
[13] = system: Streptococcus sp. 'group A'; test: Streptococcus pyogenes SK(-)GAS viability under kanamycin – luminescence, BacTiterGlo, confirmation, counter-screen for streptokinase expression inhibitor project, dose response (AID 1900); format: functional, organism-based
[14] = system: T-cell; test: loss of vesicle association with mouse CD8+ T cells – mouse 2C CD8+ T cells, flow cytometry, dose response (AID 485284); format: functional
[15] = molecular target: Cytochrome P450 2C19 (Homo sapiens, UniProt P33261); test: Cytochrome panel assay with activity outcomes. Panel member name: p450-cyp2c19 Compounds with AC50 equal or less than 10 uM are considered active; format: functional; settings: read-out: AC50
Chain of Cytochrome P450 2C19 (P33261 whole entry): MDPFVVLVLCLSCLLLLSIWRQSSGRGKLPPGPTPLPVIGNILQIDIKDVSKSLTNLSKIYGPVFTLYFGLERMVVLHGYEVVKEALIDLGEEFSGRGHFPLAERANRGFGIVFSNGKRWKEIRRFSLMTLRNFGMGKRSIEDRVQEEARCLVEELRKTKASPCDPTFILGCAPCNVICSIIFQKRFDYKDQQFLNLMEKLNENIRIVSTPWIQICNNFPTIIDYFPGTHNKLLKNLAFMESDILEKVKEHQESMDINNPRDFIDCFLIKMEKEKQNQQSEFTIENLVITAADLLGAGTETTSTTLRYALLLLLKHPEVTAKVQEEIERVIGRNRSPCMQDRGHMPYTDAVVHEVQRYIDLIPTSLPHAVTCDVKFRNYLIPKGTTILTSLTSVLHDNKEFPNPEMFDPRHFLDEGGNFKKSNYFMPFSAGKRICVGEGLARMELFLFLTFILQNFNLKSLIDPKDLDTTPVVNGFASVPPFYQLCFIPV

[16] = molecular target: T2, Coagulation factor XII (Homo sapiens, UniProt P00748); test: activated coagulation factor XII inhibitor potency, concentration-effect curve, cell-free (AID 716); format: functional
T2 sequence (P00748 whole entry): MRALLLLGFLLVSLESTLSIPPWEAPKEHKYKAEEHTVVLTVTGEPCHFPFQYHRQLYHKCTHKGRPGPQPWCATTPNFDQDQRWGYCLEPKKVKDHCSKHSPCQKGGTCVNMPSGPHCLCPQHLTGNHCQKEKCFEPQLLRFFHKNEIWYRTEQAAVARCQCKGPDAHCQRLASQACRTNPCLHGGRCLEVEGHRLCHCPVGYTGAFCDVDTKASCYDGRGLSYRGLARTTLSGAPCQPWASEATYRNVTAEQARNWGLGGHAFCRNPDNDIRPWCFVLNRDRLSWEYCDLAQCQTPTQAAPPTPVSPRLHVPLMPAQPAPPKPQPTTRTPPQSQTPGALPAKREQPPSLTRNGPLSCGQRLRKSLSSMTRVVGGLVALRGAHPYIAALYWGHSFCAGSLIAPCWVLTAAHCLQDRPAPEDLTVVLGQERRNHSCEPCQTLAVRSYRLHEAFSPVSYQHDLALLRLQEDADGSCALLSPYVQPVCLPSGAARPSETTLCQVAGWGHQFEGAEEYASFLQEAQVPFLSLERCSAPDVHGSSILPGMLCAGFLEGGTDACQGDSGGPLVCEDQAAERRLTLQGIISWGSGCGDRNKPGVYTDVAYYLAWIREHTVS

[17] = molecular target: Luciferin 4-monooxygenase (Photinus pyralis, UniProt P08659); test: inhibition of purified Photinus pyralis luciferase – biochemical, luminescence, dose response (AID 1891)
Chain of Luciferin 4-monooxygenase (P08659 whole entry): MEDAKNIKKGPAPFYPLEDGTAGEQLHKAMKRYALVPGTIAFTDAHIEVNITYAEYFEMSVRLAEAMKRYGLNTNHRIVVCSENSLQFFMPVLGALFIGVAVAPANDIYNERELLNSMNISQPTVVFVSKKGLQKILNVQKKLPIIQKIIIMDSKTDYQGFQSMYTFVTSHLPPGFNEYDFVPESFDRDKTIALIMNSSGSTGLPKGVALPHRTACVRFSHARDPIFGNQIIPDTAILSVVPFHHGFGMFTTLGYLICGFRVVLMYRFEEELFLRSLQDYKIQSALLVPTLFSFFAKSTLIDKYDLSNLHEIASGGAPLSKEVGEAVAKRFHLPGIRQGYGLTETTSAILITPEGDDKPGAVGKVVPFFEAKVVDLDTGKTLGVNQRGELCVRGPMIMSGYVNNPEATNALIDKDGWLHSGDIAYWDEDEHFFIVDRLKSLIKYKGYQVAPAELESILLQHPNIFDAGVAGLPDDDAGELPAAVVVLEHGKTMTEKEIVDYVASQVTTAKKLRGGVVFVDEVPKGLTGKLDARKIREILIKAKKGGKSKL

[18] = molecular target: T3, Polyadenylate-binding protein 1 (Homo sapiens, UniProt P11940); test: PABP inhibition in translation initiation, SAR follow-up (AID 435018); format: functional
T3 sequence (P11940 whole entry): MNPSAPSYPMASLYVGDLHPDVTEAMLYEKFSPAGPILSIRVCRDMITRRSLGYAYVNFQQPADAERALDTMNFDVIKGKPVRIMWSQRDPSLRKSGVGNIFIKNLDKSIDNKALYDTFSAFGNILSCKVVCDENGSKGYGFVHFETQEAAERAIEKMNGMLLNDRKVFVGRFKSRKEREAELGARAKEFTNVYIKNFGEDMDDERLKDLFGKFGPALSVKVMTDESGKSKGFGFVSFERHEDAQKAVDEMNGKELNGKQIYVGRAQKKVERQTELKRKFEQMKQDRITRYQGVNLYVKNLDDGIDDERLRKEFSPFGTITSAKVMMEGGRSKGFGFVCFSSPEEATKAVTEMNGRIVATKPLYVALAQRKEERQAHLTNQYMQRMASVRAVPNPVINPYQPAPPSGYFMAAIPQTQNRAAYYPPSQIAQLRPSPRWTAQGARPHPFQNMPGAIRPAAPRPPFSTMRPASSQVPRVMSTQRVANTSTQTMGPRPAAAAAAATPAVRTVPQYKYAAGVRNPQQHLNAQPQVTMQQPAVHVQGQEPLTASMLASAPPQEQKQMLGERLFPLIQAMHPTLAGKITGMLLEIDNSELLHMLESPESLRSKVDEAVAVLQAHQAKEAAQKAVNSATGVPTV

[19] = molecular target: T4, Eukaryotic translation initiation factor 4H (Homo sapiens, UniProt Q15056); test: inhibitors of translation initiation factor eIF4H – SAR follow-up (AID 435011); format: functional
[20] = Luminescence Cell-Based Dose Confirmation HTS to Identify Inhibitors of Platelet Dense Granule Release. [Related pubchem assays: 1663 (Primary HTS), 1678 (Summary of Project)]; format: functional
[21] = molecular target: T4, Eukaryotic translation initiation factor 4H; test: eIF4H binding inhibition – biochemical, uHTS, fluorescence polarization, translation initiation inhibitor project, primary screen (AID 2012)
[22] = molecular target: T3, Polyadenylate-binding protein 1; test: blockers of PABP interaction with poly(A) – biochemical, fluorescence polarization, […] (AID 2014)

Chain of G-protein coupled receptor 55 (Q9Y2T6 whole entry): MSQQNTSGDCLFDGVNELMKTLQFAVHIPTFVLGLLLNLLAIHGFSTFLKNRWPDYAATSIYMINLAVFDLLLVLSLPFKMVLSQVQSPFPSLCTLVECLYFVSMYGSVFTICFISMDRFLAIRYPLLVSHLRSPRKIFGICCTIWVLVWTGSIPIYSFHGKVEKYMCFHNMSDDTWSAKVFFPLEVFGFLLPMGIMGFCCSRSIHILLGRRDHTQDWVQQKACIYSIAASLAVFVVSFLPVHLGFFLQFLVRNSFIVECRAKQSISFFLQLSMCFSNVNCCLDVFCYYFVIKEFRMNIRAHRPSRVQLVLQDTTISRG

CN(C1CCCCC1)S(=O)(=O)c1ccc(NC(=O)C2CCCCC2C(=O)O)cc1 (configuration not stated)
IC50 [1]: 4.72 µM (active)

CCOc1ccc(-c2csc(/C(C#N)=C\c3ccc(O)c([N+](=O)[O-])c3)n2)cc1
EC50 [2]: 3.58 µM (active) | EC50 [3]: 6.23 µM (active) | IC50 [4]: 1.83 µM (active) | IC50 [5]: 6.63 µM (active) | IC50 [6]: 6.61 µM (active) | EC50 [7]: 1.52 µM (active) | IC50 [8]: 6.74 µM (active) | IC50 [9]: 2.58 µM (inactive) | IC50 [10]: > 20 µM (inactive) | AC50 [11]: 4 µM (active) | CC50 [12]: 10.5 µM (active) | EC50 [13]: 2.18 µM (active)

COc1ccc(C(=O)C2=C(O)C(=O)N(Cc3cccnc3)C2c2ccco2)cc1OC (configuration not stated)
EC50 [14]: 64 µM (inactive) | AC50 [15]: 0.0891 µM (inconclusive)

COc1ccc(N2CCN(C(=O)c3c(-c4ccccc4)noc3C)CC2)cc1
IC50 [16]: > 50 µM (inactive)

CCN1CCN(S(=O)(=O)c2ccc(Cl)c(C(=O)Nc3ccc(C(=O)N(CC)CC)cc3)c2)CC1
EC50 [17]: > 112 µM (not active) | IC50 [18]: 1.33 µM (active) | IC50 [19]: > 100 µM (inactive) | EC50 [20]: > 112 µM (not active) | IC50 [21]: > 100 µM (inactive) | IC50 [22]: 15.1 µM (active)
